Experimental data: patent US20250360183A1, “USE OF GMI FROM GANODERMA LUCIDUM SPORES IN THE PREPARATION OF PHARMACEUTICALS AND FOOD PRODUCTS” (Titan Biological & Agricultural Technology Co., Limited, priority 2024, published 2025)

Experiments:
[1] = tested on: fibronectin, COL1A1, and α-SMA; experiment: Western blot of fibrosis markers in TGF-β1-induced fibrotic LL29 cells; format: cell-based, human; settings: LL29 cells stimulated with TGF-β1 5 ng/ml, normalized to α-tubulin
Method: In the in vitro experiments, cells were pre-treated with test compounds and subsequently stimulated with recombinant TGF-β1 to induce fibrotic processes. TGF-β1 plays a critical role in epithelial-mesenchymal transition (EMT), a key driver in the differentiation of fibroblasts into myofibroblasts. LL29 cells, derived from IPF patient lung fibroblasts, were obtained from ATCC®. Upon reaching 70% confluence, cells were pre-treated with selected concentrations of GMI in low-serum media for 2 hours, followed by exposure to 5 ng/ml of recombinant human TGF-β1 (R&D Systems, MN, USA) for 48 hours.
Cell lysates were prepared in RIPA buffer. […] Protein expression was quantified using Fiji software.
The present invention evaluated the expression levels of fibronectin, COL1A1, and alpha-smooth muscle actin (α-SMA), as these proteins are key markers associated with myofibroblasts and extracellular matrix (ECM) remodeling.
FIG. 3 (A) presents the results of Western blot analysis showing the expression of fibronectin, COL1A1, α-SMA, and the internal loading control α-tubulin. FIGS. 3 (B), (C) and (D) show the quantification of protein expression based on band intensity, represented as fold changes in the ratios of fibronectin/α-tubulin, COL1A1/α-tubulin, and α-SMA/α-tubulin, normalized to the untreated control (NT) group. […]

[2] = tested on: BLM-induced pulmonary fibrosis; experiment: BLM-induced pulmonary fibrosis mouse model; format: in vivo, C57BL/6J mice; settings: BLM 2.5 U/kg mice
Method: Four groups were intratracheally administered bleomycin (BLM; 2.5 U/kg) to induce pulmonary fibrosis, while one group served as a normal control. The treatment groups included: BLM-only, BLM+GMI (1 mg/kg), BLM+GMI (2 mg/kg), and BLM+PFD (200 mg/kg). All surviving animals were sacrificed on day 22.

Cc1ccc(=O)n(-c2ccccc2)c1 [PFD, pirfenidone]
expression levels of fibronectin, COL1A1 and α-SMA [1]: failed to suppress the TGF-β1-induced upregulation
survival rate ([2]; PFD 200 mg/kg): 50%
lung appearance (gross examination, color) ([2]; compared to normal group): color and appearance comparable to the normal group
